In US10688200B2, “Urea-based prostate specific membrane antigen (PSMA) inhibitors for imaging and therapy” (Five Eleven Pharma Inc., priority 2015, dated 2020):

Test: Biodistribution of radiotracers in normal mice
Type: in vivo, mouse
Conditions: normal male mice
Description: Normal CD-1 male mice were injected via the tail vein with 35 μCi of [^68Ga] radiotracers (0.2 nmole of ligand). […] All organs were removed and blood was also collected. Each organ was weighed, and the tissue radioactivity was measured with an automated gamma counter (Wizard, Perkin Elmer). The % ID/g was calculated by comparison with samples of a standard dilution of the initial dose. All measurements were corrected for decay.

O=C(O)CC[C@H](NC(=O)N[C@@H](CCCCNC(=O)CCCCCNC(=O)CCc1ccc2c(c1)C[N+]13CC[N+]45CC(=O)[O][68Ga-3]14([O]C(=O)C3)([O]2)[O]c1ccc(CCC(=O)NCC(=O)O)cc1C5)C(=O)O)C(=O)O (stereo partly drawn) [[^68Ga]1c]
Biodistribution: Blood (2 min): 8.55 ± 0.07 % dose/g | Biodistribution: Bone (2 min): 2.30 ± 0.07 % dose/g | Biodistribution: Brain (2 min): 0.28 ± 0.04 % dose/g | Biodistribution: Heart (2 min): 3.48 ± 0.31 % dose/g | Biodistribution: Kidney (2 min): 47.2 ± 2.68 % dose/g | Biodistribution: Liver (2 min): 2.91 ± 0.15 % dose/g | Biodistribution: Lung (2 min): 5.42 ± 0.23 % dose/g | Biodistribution: Muscle (2 min): 2.16 ± 0.34 % dose/g | Biodistribution: Pancreas (2 min): 2.20 ± 0.04 % dose/g | Biodistribution: Skin (2 min): 3.00 ± 0.40 % dose/g | Biodistribution: Spleen (2 min): 3.58 ± 0.48 % dose/g | Biodistribution: Blood (60 min): 0.58 ± 0.07 % dose/g | Biodistribution: Bone (60 min): 1.24 ± 0.19 % dose/g | Biodistribution: Brain (60 min): 0.03 ± 0.01 % dose/g | Biodistribution: Heart (60 min): 0.43 ± 0.14 % dose/g | Biodistribution: Kidney (60 min): 83.5 ± 14.7 % dose/g | Biodistribution: Liver (60 min): 0.79 ± 0.15 % dose/g | Biodistribution: Lung (60 min): 0.90 ± 0.16 % dose/g | Biodistribution: Muscle (60 min): 0.60 ± 0.13 % dose/g | Biodistribution: Pancreas (60 min): 1.13 ± 0.17 % dose/g | Biodistribution: Skin (60 min): 1.07 ± 0.16 % dose/g | Biodistribution: Spleen (60 min): 1.63 ± 0.20 % dose/g

C[C@H](NC(=O)CCc1ccc2c(c1)C[N+]13CC[N+]45CC(=O)[O][68Ga-3]41([O]C(=O)C3)([O]c1ccc(CCC(=O)NCCCCCC(=O)NCCCC[C@H](NC(=O)N[C@@H](CCC(=O)O)C(=O)O)C(=O)O)cc1C5)[O]2)C(=O)O (stereo partly drawn) [[^68Ga]1d]
Biodistribution: Blood (2 min): 7.44 ± 1.40 % dose/g | Biodistribution: Bone (2 min): 2.01 ± 0.24 % dose/g | Biodistribution: Brain (2 min): 0.23 ± 0.04 % dose/g | Biodistribution: Heart (2 min): 3.18 ± 0.48 % dose/g | Biodistribution: Kidney (2 min): 50.3 ± 8.32 % dose/g | Biodistribution: Liver (2 min): 2.36 ± 0.27 % dose/g | Biodistribution: Lung (2 min): 4.96 ± 0.67 % dose/g | Biodistribution: Muscle (2 min): 1.96 ± 0.08 % dose/g | Biodistribution: Pancreas (2 min): 1.83 ± 0.40 % dose/g | Biodistribution: Skin (2 min): 2.30 ± 0.20 % dose/g | Biodistribution: Spleen (2 min): 3.40 ± 0.91 % dose/g | Biodistribution: Blood (60 min): 0.44 ± 0.06 % dose/g | Biodistribution: Bone (60 min): 0.70 ± 0.09 % dose/g | Biodistribution: Brain (60 min): 0.03 ± 0.00 % dose/g | Biodistribution: Heart (60 min): 0.42 ± 0.01 % dose/g | Biodistribution: Kidney (60 min): 141.7 ± 0.82 % dose/g | Biodistribution: Liver (60 min): 0.68 ± 0.11 % dose/g | Biodistribution: Lung (60 min): 1.10 ± 0.13 % dose/g | Biodistribution: Muscle (60 min): 0.50 ± 0.07 % dose/g | Biodistribution: Pancreas (60 min): 1.02 ± 0.18 % dose/g | Biodistribution: Skin (60 min): 0.81 ± 0.11 % dose/g | Biodistribution: Spleen (60 min): 5.11 ± 0.97 % dose/g

O=C(O)CC[C@H](NC(=O)N[C@@H](CCCCNC(=O)CCCCCNC(=O)CCc1ccc2c(c1)C[N+]13CC[N+]45CC(=O)[O][68Ga-3]14([O]C(=O)C3)([O]2)[O]c1ccc(CCC(=O)N[C@@H](CC(=O)O)C(=O)O)cc1C5)C(=O)O)C(=O)O (stereo partly drawn) [[^68Ga]1e]
Biodistribution: Blood (2 min): 7.47 ± 0.33 % dose/g | Biodistribution: Bone (2 min): 2.33 ± 0.05 % dose/g | Biodistribution: Brain (2 min): 0.25 ± 0.07 % dose/g | Biodistribution: Heart (2 min): 3.12 ± 0.17 % dose/g | Biodistribution: Kidney (2 min): 46.6 ± 3.01 % dose/g | Biodistribution: Liver (2 min): 2.00 ± 0.09 % dose/g | Biodistribution: Lung (2 min): 5.08 ± 0.13 % dose/g | Biodistribution: Muscle (2 min): 2.01 ± 0.09 % dose/g | Biodistribution: Pancreas (2 min): 1.80 ± 0.17 % dose/g | Biodistribution: Skin (2 min): 2.46 ± 0.32 % dose/g | Biodistribution: Spleen (2 min): 3.69 ± 0.45 % dose/g | Biodistribution: Blood (60 min): 0.45 ± 0.14 % dose/g | Biodistribution: Bone (60 min): 0.52 ± 0.06 % dose/g | Biodistribution: Brain (60 min): 0.02 ± 0.00 % dose/g | Biodistribution: Heart (60 min): 0.28 ± 0.05 % dose/g | Biodistribution: Kidney (60 min): 113 ± 28.5 % dose/g | Biodistribution: Liver (60 min): 0.35 ± 0.09 % dose/g | Biodistribution: Lung (60 min): 1.14 ± 0.30 % dose/g | Biodistribution: Muscle (60 min): 0.33 ± 0.07 % dose/g | Biodistribution: Pancreas (60 min): 0.74 ± 0.19 % dose/g | Biodistribution: Skin (60 min): 0.67 ± 0.06 % dose/g | Biodistribution: Spleen (60 min): 3.03 ± 0.90 % dose/g

O=C(O)CC[C@H](NC(=O)CCc1ccc2c(c1)C[N+]13CC[N+]45CC(=O)[O][68Ga-3]41([O]C(=O)C3)([O]c1ccc(CCC(=O)NCCCCCC(=O)NCCCC[C@H](NC(=O)N[C@@H](CCC(=O)O)C(=O)O)C(=O)O)cc1C5)[O]2)C(=O)O (stereo partly drawn) [[^68Ga]1f]
Biodistribution: Blood (2 min): 7.77 ± 1.51 % dose/g | Biodistribution: Bone (2 min): 2.33 ± 0.38 % dose/g | Biodistribution: Brain (2 min): 0.25 ± 0.02 % dose/g | Biodistribution: Heart (2 min): 3.23 ± 0.64 % dose/g | Biodistribution: Kidney (2 min): 45.0 ± 12.57 % dose/g | Biodistribution: Liver (2 min): 2.43 ± 0.60 % dose/g | Biodistribution: Lung (2 min): 5.07 ± 1.01 % dose/g | Biodistribution: Muscle (2 min): 1.81 ± 0.07 % dose/g | Biodistribution: Pancreas (2 min): 1.72 ± 0.41 % dose/g | Biodistribution: Skin (2 min): 2.44 ± 0.16 % dose/g | Biodistribution: Spleen (2 min): 3.80 ± 0.97 % dose/g | Biodistribution: Blood (60 min): 0.97 ± 0.24 % dose/g | Biodistribution: Bone (60 min): 1.08 ± 0.05 % dose/g | Biodistribution: Brain (60 min): 0.04 ± 0.01 % dose/g | Biodistribution: Heart (60 min): 0.52 ± 0.07 % dose/g | Biodistribution: Kidney (60 min): 120 ± 5.65 % dose/g | Biodistribution: Liver (60 min): 0.79 ± 0.13 % dose/g | Biodistribution: Lung (60 min): 1.37 ± 0.15 % dose/g | Biodistribution: Muscle (60 min): 0.60 ± 0.04 % dose/g | Biodistribution: Pancreas (60 min): 1.13 ± 0.17 % dose/g | Biodistribution: Skin (60 min): 0.98 ± 0.10 % dose/g | Biodistribution: Spleen (60 min): 2.98 ± 1.86 % dose/g

O=C(O)CC[C@H](NC(=O)N[C@@H](CCCCNC(=O)CCCCCNC(=O)CCc1ccc2c(c1)C[N+]13CC[N+]45CC(=O)[O][68Ga-3]14([O]C(=O)C3)([O]2)[O]c1ccc(CCC(=O)NCCNC(=O)CN2CCN(CC(=O)O)CCN(CC(=O)O)CCN(CC(=O)O)CC2)cc1C5)C(=O)O)C(=O)O (stereo partly drawn) [[^68Ga]1g]
Biodistribution: Blood (2 min): 7.62 ± 0.08 % dose/g | Biodistribution: Bone (2 min): 1.51 ± 0.17 % dose/g | Biodistribution: Brain (2 min): 0.29 ± 0.06 % dose/g | Biodistribution: Heart (2 min): 2.82 ± 0.21 % dose/g | Biodistribution: Kidney (2 min): 50.9 ± 5.81 % dose/g | Biodistribution: Liver (2 min): 2.00 ± 0.05 % dose/g | Biodistribution: Lung (2 min): 5.19 ± 0.19 % dose/g | Biodistribution: Muscle (2 min): 1.72 ± 0.18 % dose/g | Biodistribution: Pancreas (2 min): 1.73 ± 0.09 % dose/g | Biodistribution: Skin (2 min): 2.00 ± 0.21 % dose/g | Biodistribution: Spleen (2 min): 5.06 ± 0.78 % dose/g | Biodistribution: Blood (30 min): 0.68 ± 0.09 % dose/g | Biodistribution: Bone (30 min): 0.22 ± 0.11 % dose/g | Biodistribution: Brain (30 min): 0.06 ± 0.03 % dose/g | Biodistribution: Heart (30 min): 0.49 ± 0.15 % dose/g | Biodistribution: Kidney (30 min): 110 ± 13.4 % dose/g | Biodistribution: Liver (30 min): 0.47 ± 0.06 % dose/g | Biodistribution: Lung (30 min): 2.13 ± 0.39 % dose/g | Biodistribution: Muscle (30 min): 0.48 ± 0.04 % dose/g | Biodistribution: Pancreas (30 min): 0.73 ± 0.19 % dose/g | Biodistribution: Skin (30 min): 1.13 ± 0.25 % dose/g | Biodistribution: Spleen (30 min): 5.28 ± 2.18 % dose/g | Biodistribution: Blood (60 min): 0.41 ± 0.02 % dose/g | Biodistribution: Bone (60 min): 0.28 ± 0.03 % dose/g | Biodistribution: Brain (60 min): 0.03 ± 0.01 % dose/g | Biodistribution: Heart (60 min): 0.27 ± 0.03 % dose/g | Biodistribution: Kidney (60 min): 116 ± 23.2 % dose/g | Biodistribution: Liver (60 min): 0.43 ± 0.05 % dose/g | Biodistribution: Lung (60 min): 1.33 ± 0.06 % dose/g | Biodistribution: Muscle (60 min): 0.30 ± 0.08 % dose/g | Biodistribution: Pancreas (60 min): 0.48 ± 0.05 % dose/g | Biodistribution: Skin (60 min): 0.92 ± 0.11 % dose/g | Biodistribution: Spleen (60 min): 4.77 ± 2.37 % dose/g | Biodistribution: Blood (120 min): 0.25 ± 0.04 % dose/g | Biodistribution: Bone (120 min): 0.28 ± 0.03 % dose/g | Biodistribution: Brain (120 min): 0.02 ± 0.00 % dose/g | Biodistribution: Heart (120 min): 0.16 ± 0.01 % dose/g | Biodistribution: Kidney (120 min): 95.0 ± 11.2 % dose/g | Biodistribution: Liver (120 min): 0.30 ± 0.01 % dose/g | Biodistribution: Lung (120 min): 0.85 ± 0.16 % dose/g | Biodistribution: Muscle (120 min): 0.23 ± 0.04 % dose/g | Biodistribution: Pancreas (120 min): 0.39 ± 0.04 % dose/g | Biodistribution: Skin (120 min): 0.66 ± 0.10 % dose/g | Biodistribution: Spleen (120 min): 2.48 ± 0.91 % dose/g
